Literature values, collected in patent US20190298786A1, “EXTRACTS OF SAUDI ARABIAN HERBAL PLANTS, ANTI-CANCER METHOD USING SUCH EXTRACTS, AND CYTOLOGICAL PROFILING USING AUTOMATED HIGH-CONTENT IMAGING TECHNIQUE” (King Abdullah University of Science and Technology, priority 2016, published 2019).
≈ marks a conversion by molar mass, not a printed value.

Columns and labels:
[1] = system: MCF7 cells
[2] = system: CasKi cells
[3] = system: KB cells
[4] = system: human cervical cancer (HOG-1) cell; details: HOG-1 cells, different concentrations

Row | Structure (SMILES) | IC50 (cytotoxic effects) [1] [µg/mL] | IC50 (cytotoxic effects) [2] [µg/mL] | IC50 (cytotoxic effects) [3] [µg/mL] | effect on cell growth and DNA synthesis [4]
1 | CC(C)(C)c1ccc(O)c(C(C)(C)C)c1 [2,4-ditert-butylphenol] | 5.75 (≈ 27.9 µM) | 4.5 (≈ 21.8 µM) | 0.81 (≈ 3.93 µM) | 
2 | CCCCCCCCCCCCCCCCCC(=O)O [stearic acid, Stearic acid] |  |  |  | inhibited
